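Here, GI50 denotes the concentration required for 50% inhibition of growth. TGI is the concentration that stops growth completely.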
Columns and labels:
Test in all cases: NCI anticancer screen, dose series, 384-well format
786-0 renal = test system: 786-0 renal
A498 renal = test system: A498 renal
A549 NSCLC = test system: A549 NSCLC
ACHN renal = test system: ACHN renal
BT-549 breast = test system: BT-549 breast
CAKI-1 renal = test system: CAKI-1 renal
CCRF-CEM leukemia = test system: CCRF-CEM leukemia
COLO 205 colon = test system: COLO 205 colon
DU-145 prostate = test system: DU-145 prostate
HCC-2998 colon = test system: HCC-2998 colon
HCT-116 colon = test system: HCT-116 colon
HCT-15 colon = test system: HCT-15 colon
HL-60(TB) leukemia = test system: HL-60(TB) leukemia
HOP-62 NSCLC = test system: HOP-62 NSCLC
HOP-92 NSCLC = test system: HOP-92 NSCLC
HT29 colon = test system: HT29 colon
IGROV1 ovarian = test system: IGROV1 ovarian
K-562 leukemia = test system: K-562 leukemia
KM12 colon = test system: KM12 colon
LOX IMVI melanoma = test system: LOX IMVI melanoma
M14 melanoma = test system: M14 melanoma
MALME-3M melanoma = test system: MALME-3M melanoma
MCF7 breast = test system: MCF7 breast
MDA-MB-231 breast = test system: MDA-MB-231 breast
MDA-MB-435 melanoma = test system: MDA-MB-435 melanoma
MDA-MB-468 breast = test system: MDA-MB-468 breast
MOLT-4 leukemia = test system: MOLT-4 leukemia
NCI-H226 lung = test system: NCI-H226 lung
NCI-H23 lung = test system: NCI-H23 lung
NCI-H322M lung = test system: NCI-H322M lung
NCI-H460 NSCLC = test system: NCI-H460 NSCLC
NCI-H522 lung = test system: NCI-H522 lung
NCI/ADR-RES ovarian = test system: NCI/ADR-RES ovarian
OVCAR-3 ovarian = test system: OVCAR-3 ovarian
OVCAR-4 ovarian = test system: OVCAR-4 ovarian
OVCAR-5 ovarian = test system: OVCAR-5 ovarian
OVCAR-8 ovarian = test system: OVCAR-8 ovarian
PC-3 prostate = test system: PC-3 prostate
RXF 393 renal = test system: RXF 393 renal
SF-268 CNS = test system: SF-268 CNS
SF-295 CNS = test system: SF-295 CNS
SF-539 CNS = test system: SF-539 CNS
SK-MEL-2 melanoma = test system: SK-MEL-2 melanoma
SK-MEL-28 melanoma = test system: SK-MEL-28 melanoma
SK-MEL-5 melanoma = test system: SK-MEL-5 melanoma
SK-OV-3 ovarian = test system: SK-OV-3 ovarian
SN12C renal = test system: SN12C renal
SNB-19 CNS = test system: SNB-19 CNS
SR leukemia = test system: SR leukemia
SW-620 colon = test system: SW-620 colon
T-47D breast = test system: T-47D breast
TK-10 renal = test system: TK-10 renal
U251 glioblastoma = test system: U251 glioblastoma
UACC-257 melanoma = test system: UACC-257 melanoma
UACC-62 melanoma = test system: UACC-62 melanoma
UO-31 renal = test system: UO-31 renal

Cc1c2c(nn1C)CSCc1cc(n(C)n1)CSc1cc(c3ccccc3c1)OCCCc1c(C(=O)O)n(C)c3c-2c(Cl)ccc13
GI50 ([…]-0 renal): 3.06 µM
TGI (786-0 renal): 11.5 µM
GI50 (A498 renal): 3.69 µM
TGI (A498 renal): 14.1 µM
GI50 (A549 NSCLC): 3.94 µM
TGI (A549 NSCLC): 15.1 µM
GI50 (ACHN renal): 4.09 µM
TGI (ACHN renal): 15.9 µM
GI50 (BT-549 breast): 1.62 µM
TGI (BT-549 breast): 4.58 µM
GI50 (CAKI-1 renal): 5.74 µM
TGI (CAKI-1 renal): 18.2 µM
GI50 (CCRF-CEM leukemia): 0.631 µM
TGI (CCRF-CEM leukemia): 2.33 µM
GI50 (COLO 205 colon): 5.21 µM
TGI (COLO 205 colon): 17.3 µM
GI50 (DU-145 prostate): 2.98 µM
TGI (DU-145 prostate): 8.97 µM
GI50 (HCC-2998 colon): 1.11 µM
TGI (HCC-2998 colon): 3.94 µM
GI50 (HCT-116 colon): 2.41 µM
TGI (HCT-116 colon): 6.04 µM
GI50 (HCT-15 colon): 4.49 µM
TGI (HCT-15 colon): 15.5 µM
GI50 (HL-60(TB) leukemia): 0.0122 µM
TGI (HL-60(TB) leukemia): 0.0248 µM
GI50 (HOP-62 NSCLC): 2.41 µM
TGI (HOP-62 NSCLC): 10.6 µM
GI50 (HOP-92 NSCLC): 2.08 µM
TGI (HOP-92 NSCLC): 5.64 µM
GI50 (HT29 colon): 3.49 µM
TGI (HT29 colon): 11.3 µM
GI50 (IGROV1 ovarian): 2.85 µM
TGI (IGROV1 ovarian): 10.9 µM
GI50 (K-562 leukemia): 3.78 µM
TGI (K-562 leukemia): 13.1 µM
GI50 (KM12 colon): 2.13 µM
TGI (KM12 colon): 5.14 µM
GI50 (LOX IMVI melanoma): 3.01 µM
TGI (LOX IMVI melanoma): 10.1 µM
GI50 (M14 melanoma): 2.8 µM
TGI (M14 melanoma): 8.79 µM
GI50 (MALME-3M melanoma): 1.76 µM
TGI (MALME-3M melanoma): 4.45 µM
GI50 (MCF7 breast): 0.336 µM
TGI (MCF7 breast): 2.75 µM
GI50 (MDA-MB-231 breast): 6.22 µM
TGI (MDA-MB-231 breast): 18.5 µM
GI50 (MDA-MB-435 melanoma): 1.01 µM
TGI (MDA-MB-435 melanoma): 13.2 µM
GI50 (MDA-MB-468 breast): 0.126 µM
TGI (MDA-MB-468 breast): 0.581 µM
GI50 (MOLT-4 leukemia): 0.0856 µM
TGI (MOLT-4 leukemia): 0.236 µM
GI50 (NCI-H226 lung): 2.59 µM
TGI (NCI-H226 lung): 7.4 µM
GI50 (NCI-H23 lung): 0.185 µM
TGI (NCI-H23 lung): 0.861 µM
GI50 (NCI-H322M lung): 8.43 µM
TGI (NCI-H322M lung): 20.8 µM
GI50 (NCI-H460 NSCLC): 1.96 µM
TGI (NCI-H460 NSCLC): 4.68 µM
GI50 (NCI-H522 lung): 0.0686 µM
TGI (NCI-H522 lung): 0.581 µM
GI50 (NCI/ADR-RES ovarian): 12 µM
TGI (NCI/ADR-RES ovarian): 24.4 µM
GI50 (OVCAR-3 ovarian): 1.76 µM
TGI (OVCAR-3 ovarian): 3.69 µM
GI50 (OVCAR-4 ovarian): 0.459 µM
TGI (OVCAR-4 ovarian): 3.54 µM
GI50 (OVCAR-5 ovarian): 3.99 µM
TGI (OVCAR-5 ovarian): 14 µM
GI50 (OVCAR-8 ovarian): 4.01 µM
TGI (OVCAR-8 ovarian): 15.3 µM
GI50 (PC-3 prostate): 3.04 µM
TGI (PC-3 prostate): 9.02 µM
GI50 (RXF 393 renal): 0.375 µM
TGI (RXF 393 renal): 2.13 µM
GI50 (SF-268 CNS): 3.04 µM
TGI (SF-268 CNS): 11.9 µM
GI50 (SF-295 CNS): 1.85 µM
TGI (SF-295 CNS): 4.23 µM
GI50 (SF-539 CNS): 1.74 µM
TGI (SF-539 CNS): 4.35 µM
GI50 (SK-MEL-2 melanoma): 0.0454 µM
TGI (SK-MEL-2 melanoma): 0.189 µM
GI50 (SK-MEL-28 melanoma): 2.51 µM
TGI (SK-MEL-28 melanoma): 7.44 µM
GI50 (SK-MEL-5 melanoma): 1.23 µM
TGI (SK-MEL-5 melanoma): 2.69 µM
GI50 (SK-OV-3 ovarian): 6.18 µM
TGI (SK-OV-3 ovarian): 19.2 µM
GI50 (SN12C renal): 3.4 µM
TGI (SN12C renal): 13.4 µM
GI50 (SNB-19 CNS): 3.5 µM
TGI (SNB-19 CNS): 12 µM
GI50 (SR leukemia): 0.0157 µM
TGI (SR leukemia): 0.0329 µM
GI50 (SW-620 colon): 3.96 µM
TGI (SW-620 colon): 13.6 µM
GI50 (T-47D breast): 2.3 µM
TGI (T-47D breast): 8.32 µM
GI50 (TK-10 renal): 3.3 µM
TGI (TK-10 renal): 12.7 µM
GI50 (U251 glioblastoma): 2.35 µM
TGI (U251 glioblastoma): 4.92 µM
GI50 (UACC-257 melanoma): 2.59 µM
TGI (UACC-257 melanoma): 9.27 µM
GI50 (UACC-62 melanoma): 0.134 µM
TGI (UACC-62 melanoma): 0.349 µM
GI50 (UO-31 renal): 3.82 µM
TGI (UO-31 renal): 14.6 µM

Source: PubChem BioAssay (NCI)
